Legend:
Assay type in all cases: cell-based
Lemna gibba G3 = test: Callus induction from Lemna gibba G3 fronds on solid medium with plant growth regulators
Experimental: Duckweed fronds were grown in liquid Hoagland's medium (Hoagland and Snyder, Proc. Amer. Soc. Hort. Sci. 30, 288 (1933)) containing 3% sucrose for two weeks at 23° C. under a 16 hr light/8 hr dark photoperiod with light intensity of approximately 40 μmol/m^2·sec prior to experimentation. For callus induction, eighteen, 100 ml portions of Murashige and Skoog basal medium (Murashige and Skoog, Physiol. Plant. 15, 473 (1962)) containing 3% sucrose, 0.15% Gelrite and 0.4% Difco Bacto-agar were prepared with 2,4-D concentrations of 10, 20 and 50 μM and BA concentrations of 0, 0.01, 0.1, 1.0, 2.0, and 10.0 μM. All media were pH adjusted to 5.8, autoclaved at 121° C. for 20 minutes, cooled, and each 100 ml was poured into 4, 100 mm×15 mm petri dishes.
(§1) A three 2,4-D concentrations×six BA concentrations, full-factorial experimental design (18 treatments in total) with four replications, with one petri dish per replication and 5 fronds per petri dish was used. For callus induction, 5 individual duckweed fronds were placed abaxial side down on each plate of medium. The 72 plates were incubated at 23° C., for 27 days under a 16 hr light/8 hr dark photoperiod with light intensity of approximately 40 μmol/m^2·sec. After 27 days the duckweed tissue was transferred to fresh media of the same type and incubation was continued another 35 days under the same temperature and light culturing conditions.
Duckweed fronds were grown in liquid Hoagland's medium containing 3% sucrose for two weeks at 23° C. under a 16 hr light/8 hr dark photoperiod with light intensity of approximately 40 μmol/m^2·sec. prior to experimentation. For callus induction, forty 100 ml portions of Murashige and Skoog medium with 3% sucrose, 0.15% Gelrite, and 0.4% Difco Bacto-agar were prepared with dicamba concentrations of 10, 20, 30, 40, 50, 60, 80, 100 μM and BA concentrations of 0.01, 0.05, 0.1, 0.5, and 1.0 μM. All media were pH adjusted to 5.8, autoclaved at 121° C. for 20 minutes, cooled, and each 100 ml was poured into 4, 100 mm×15 mm petri dishes.
as §1, with “An eight dicamba concentrations×five BA” for “A three 2,4-D concentrations×six BA”, “design (40” for “design (18”, “The” for “The 72”, “After 28” for “After 27”, “another 45” for “another 35”
Duckweed fronds were grown in liquid Schenk and Hildebrandt medium containing 1% sucrose for two weeks at 23° C. under a 16 hr light/8 hr dark photoperiod with light intensity of approximately 40 μmol/m^2·sec prior to experimentation. For callus induction, three basal media were tested: Murashige and Skoog, Schenk and Hildebrandt, and N6. Benzyladenine was used as the cytokinin at a concentration of 1 μM. The auxin concentrations varied with auxin type. For the relatively strong auxins, 2,4-D and dicamba, concentrations were 0, 1, 5, 10 and 20 μM. For weak auxins, NAA and IBA, the concentrations were 0, 5, 10, 20 and 50 μM. For each medium dose-response experiment, 2 liters of basal medium were prepared with BA and the pH adjusted to 5.8. The volume was aliquoted as 20, 100 ml portions. To each of these portions, the appropriate amount of auxin was added and the medium was adjusted to 0.15% Gelrite, and 0.4% Difco Bacto-agar. The media were autoclaved for 30 minutes at 121° C., cooled and 4, 100 mm×15 mm petri dishes were poured from each 100 ml portion.
A 3 media×4 auxin×5 concentration combinations, 60 treatment, randomized dose-response experimental design was used. The design was replicated two times, with one petri dish per replication and 5 fronds per petri dish.

[1] = tested on: L. minor strains 8744 and 8627; test: Callus induction from Lemna minor fronds, auxin and cytokinin type and concentration; conditions: MS medium, 6 weeks
Experimental: In the auxin type and concentration experiment, four auxins: 2,4-D, NAA, IBA and dicamba were tested, each at four concentrations: 2, 5, 10 and 20 μM, for their ability to induce callus formation from L. minor strains 8744 and 8627. The basal medium used was MS and media and experimental protocol was basically that followed in Example 10. Fronds used in this experiment were grown for 2 weeks prior to plating on callus induction medium under 3 different culture conditions: 1) SH medium without plant growth regulators, 2) F medium with 24 μM 2,4-D and 2 μM 2-iP, and 3) SH medium with 24 μM 2,4-D and 2 μM 2-iP. Fronds were separated, the roots cut off and then plated on induction medium. The fronds were incubated under conditions given in Example 8 for 6 weeks at which time cultures were evaluated for the presence or absence of callus induction, the degree to which the callus proliferated, and the basic morphology of the callus present.
In the cytokinin type and concentration experiment, four cytokinins: BA, kinetin, 2-iP, and thidiazuron were tested, each at five concentrations: 0.05, 0.1, 0.5, 1 and 5 μM, for their ability to induce callus formation from L. minor strains 8744 and 8627. The basal medium used was MS and the media and experimental protocol were basically as described in Example 11. Fronds used in this experiment were grown for 2 weeks prior to plating on callus induction medium under 3 different culture conditions: 1) SH medium without plant growth regulators, 2) F medium with 24 μM 2,4-D and 2 μM 2-iP, and 3) SH medium with 24 μM 2,4-D and 2 μM 2-iP. Fronds were separated, the roots cut off and then plated on induction medium. The fronds were incubated under conditions given in Example 8 for 6 weeks at which time cultures were evaluated for the presence or absence of callus induction, the degree to which the callus proliferated, and the basic morphology of the callus.

Spirodela species = test: Callus induction screen across Lemnaceae strains, frond health; conditions: 4-5 weeks
Experimental: Duckweed fronds were grown in liquid Schenk and Hildebrandt medium containing 1% sucrose for two weeks at 23° C. under a 16 hr light/8 hr dark photoperiod with light intensity of approximately 40 μmol/m^2·sec prior to experimentation. For callus induction, six basal media were used: Murashige and Skoog, Schenk and Hildebrand (Schenk and Hildebrandt, Can. J. Bot. 50, 199 (1972)), Nitsch and Nitsch, N6 (Chu et al., Scientia Sinica 18, 659 (1975)), Gamborg's B5, and Hoagland's. The two plant growth regulator combinations known to elicit callus proliferation in L. gibba G3 were used: 30 μM 2,4-D and 0.02 μM BA, and 5 μM 2,4-D and 2 μM BA. For each strain, 200 ml of each basal medium was prepared with 3% sucrose, 0.15% Gelrite, and 0.4% Difco Bacto-agar. The 200 ml was divided into 2, 100 ml portions, each to be used to prepare the two plant growth regulator concentrations. The pH of all media was adjusted to 5.8, the media were autoclaved for 30 minutes at 121° C., cooled and 4, 100 mm×15 mm petri dishes were poured from each 100 ml portion.
A 6 media×2 plant growth regulator combinations, 12 treatment, random block experimental design was used for each duckweed strain tested. […] At this time the fronds were evaluated for general health (judged by color: green to yellow, and vigor of proliferation) and the frequency of callus initiation of the three types: Type I, Type II, and Type III.

## O=C(O)COc1ccc(Cl)cc1Cl [2,4-D, 2,4-dichlorophenoxyacetic acid]
Lemna gibba G3; 2,4-D x BA factorial, Murashige and Skoog medium, 62 days
  concentrations at which callus proliferation was the most vigorous: 20 to 50 µM
Lemna gibba G3; auxin with 1 μM BA, five weeks
  compact Type I callus induction on MS medium: some degree of callus induction
  compact Type I callus induction on N6 medium: produced callus
[1]; strain 8627, auxin experiment
  concentration giving the best callus induction: 5 µM
[1]; strain 8744, auxin experiment
  concentration giving the best callus induction: 5 µM
Spirodela species; higher concentration of 2,4-D (30 μM with 0.02 μM BA)
  frond survival: did not survive
Spirodela species; lower concentration of 2,4-D (5 μM with 2 μM BA)
  frond growth: did not grow well

Reference: US7161064B2, “Method for producing stably transformed duckweed using microprojectile bombardment” (North Carolina State University, priority 1997, dated 2007)
